As a reminder, the EC50 is the concentration at which the effect is half-maximal.

The source of these data is patent US9296758B2, “2-quinolinyl-acetic acid derivatives as HIV antiviral compounds” (GILEAD SCIENCES, INC., priority 2010, dated 2016).

One experiment concerns HIV-IIIb. The experiment in a line: Test A: Antiviral Assays in MT4 Cells. Conditions: Human immunodeficiency virus 1, IIIB, MT4, 120 h, MT-4 cells infected with HIV-IIIb (0.004 m.o.i.), 5 days of incubation, CellTiter-Glo chemiluminescence readout. It counts as cell-based. The protocol: Test A: Antiviral Assays in MT4 Cells For the antiviral assay utilizing MT-4 cells, 0.4 μL of 189X test concentration of 3-fold serially diluted compound in DMSO was added to 40 μL of cell growth medium (RPMI 1640, 10% FBS, 1% penicillin/Streptomycin, 1% L-Glutamine, 1% HEPES) in each well of 384-well assay plates (10 concentrations) in quadruplicate. 1 mL aliquots of 2×10e6 MT-4 cells are pre-infected for 1 and 3 hrs respectively, @ 37° C. with 25 μL (MT4) or of either cell growth medium (mock-infected) or a fresh 1:250 dilution of an HIV-IIIb concentrated ABI stock (0.004 m.o.i. for MT4 cells). Infected and uninfected cells are diluted in cell growth medium and 35 uL of 2000 (for MT4) cells is added to each well of the assay plates. Assay plates were then incubated in a 37° C. incubator. After 5 days of incubation, 25 μl of 2× concentrated CellTiter-Glo™ Reagent (catalog #G7573, Promega Biosciences, Inc., Madison, Wis.) was added to each well of the assay plate. Cell lysis was carried out by incubating at room temperature for 2-3 min and then chemiluminescence was read using the Envision reader (PerkinElmer).
With `Cc1cccc(C)c1-c1ccc2c(-c3ccc4c5c(ccnc35)CCO4)c([C@H](OC(C)(C)C)C(=O)O)c(C)cc2n1` [Compound 54, (S)-2-tert-Butoxy-2-((R)-5-(2,3-dihydropyrano[4,3,2-de]quinolin-7-yl)-2-(2,6-dimethylphenyl)-7-methylquinolin-6-yl)acetic acid], the 50% effective concentration (EC50) was found to be 87 nM. As for `Cc1cc2c(ccc(C)[n+]2[O-])c(-c2ccc3c4c(ccnc24)CCO3)c1[C@H](OC(C)(C)C)C(=O)O` [Compound 22, (R)-6-((S)-tert-butoxy(carboxy)methyl)-5-(2,3-dihydropyrano[4,3,2-de]quinolin-7-yl)-2,7-dimethylquinoline 1-oxide], the 50% effective concentration (EC50) was found to be 1080 nM. As to `Cc1cc2c(ccc(=O)n2CCNC(=O)OCC2c3ccccc3-c3ccccc32)c(-c2ccc(Cl)cc2)c1[C@H](OC(C)(C)C)C(=O)O` [Compound 101, (S)-2-(1-(2-(((9H-Fluoren-9-yl)methoxy)carbonylamino)ethyl)-5-(4-chlorophenyl)-7-methyl-2-oxo-1,2-dihydroquinolin-6-yl)-2-tert-butoxyacetic acid], the EC50 was 367 nM. This EC50 lies about 2.9-fold lower than the previous one. `Cc1cc2c(ccc3nncn32)c(-c2ccc(Cl)cc2)c1[C@H](OC(C)(C)C)C(=O)O` [Compound 63, (S)-2-tert-butoxy-2-(6-(4-chlorophenyl)-8-methyl-[1,2,4]triazolo[4,3-a]quinolin-7-yl)acetic acid] showed an EC50 of 183 nM. Regarding `Cc1cc2nc(-n3ccnc3)ccc2c(-c2ccc(Cl)cc2)c1[C@H](OC(C)(C)C)C(=O)O` [Compound 91, (S)-2-tert-Butoxy-2-(5-(4-chlorophenyl)-2-(1H-imidazol-1-yl)-7-methylquinolin-6-yl)acetic acid], the concentration giving a half-maximal response (EC50) is 73 nM. Same read-out and setting: in the case of `COC(=O)c1ccc2c(-c3ccc(Cl)cc3)c([C@H](OC(C)(C)C)C(=O)O)c(C)cc2n1` [Compound 12, (S)-2-tert-Butoxy-2-(5-(4-chlorophenyl)-2-(methoxycarbonyl)-7-methylquinolin-6-yl)acetic acid] it was 210 nM.

In the case of `Cc1cc2nc(CCc3ccccc3)ccc2c(-c2ccc(Cl)cc2)c1[C@H](OC(C)(C)C)C(=O)O` [Compound 37B, (S)-2-tert-butoxy-2-(5-(4-chlorophenyl)-7-methyl-2-phenethylquinolin-6-yl)acetic acid], the response was half-maximal at 46 nM (EC50). As for `Cc1cc2c(ccc3nccn32)c(-c2ccc(Cl)cc2)c1[C@H](OC(C)(C)C)C(=O)O` [Compound 62, (S)-2-tert-Butoxy-2-(6-(4-chlorophenyl)-8-methylimidazo[1,2-a]quinolin-7-yl)acetic acid], it took 72 nM to reach a half-maximal effect (EC50). `Cc1ccc2c(-c3ccc(Cl)cc3)c([C@H](OC(C)(C)C)C(=O)O)c(C)cc2n1` [Compound 2K, (S)-2-tert-butoxy-2-(5-(4-chlorophenyl)-2,7-dimethylquinolin-6-yl)acetic acid] displayed an EC50 of 55 nM. The compound `Cc1cc2nc(-c3ccn[nH]3)ccc2c(-c2ccc(Cl)cc2)c1[C@H](OC(C)(C)C)C(=O)O` [Compound 70, (S)-2-tert-Butoxy-2-(5-(4-chlorophenyl)-7-methyl-2-(1H-pyrazol-5-yl)quinolin-6-yl)acetic acid] gave a concentration for a half-maximal effect (EC50) of 206 nM. Consider `Cc1cc2nc(-c3ccccn3)ccc2c(-c2ccc(Cl)cc2)c1[C@H](OC(C)(C)C)C(=O)O` [Compound 79, (S)-2-tert-butoxy-2-(5-(4-chlorophenyl)-7-methyl-2-(pyridin-2-yl)quinolin-6-yl)acetic acid], for which the half-maximal effective concentration (EC50) came to 86 nM. `CCOC(=O)c1ccc2c(-c3ccc(Cl)cc3)c([C@H](OC(C)(C)C)C(=O)O)c(C)cc2n1` [Compound 13, (S)-2-tert-Butoxy-2-(5-(4-chlorophenyl)-2-(ethoxycarbonyl)-7-methylquinolin-6-yl)acetic acid] gave an EC50 of 150 nM.

`Cc1cc2nc(-c3ccncc3)ccc2c(-c2ccc(Cl)cc2)c1[C@H](OC(C)(C)C)C(=O)O` [Compound 73, (S)-2-tert-butoxy-2-(5-(4-chlorophenyl)-7-methyl-2-(pyridin-4-yl)quinolin-6-yl)acetic acid] showed a 50% effective concentration (EC50) of 247 nM. Compound `Cc1cc2nc(CN3CCCCC3)ccc2c(-c2ccc(Cl)cc2)c1[C@H](OC(C)(C)C)C(=O)O` [Compound 11, (S)-2-tert-Butoxy-2-(5-(4-chlorophenyl)-7-methyl-2-(piperidin-1-ylmethyl)quinolin-6-yl)acetic acid] showed an EC50 of 479 nM. This EC50 is about 1.9-fold higher than that of the compound before.

Compound `Cc1cc2nc(-c3cn[nH]c3)ccc2c(-c2ccc(Cl)cc2)c1[C@H](OC(C)(C)C)C(=O)O` [Compound 77, (S)-2-tert-butoxy-2-(5-(4-chlorophenyl)-7-methyl-2-(1H-pyrazol-4-yl)quinolin-6-yl)acetic acid] had a concentration giving a half-maximal response (EC50) of 135 nM. `Cc1cc2nc(C(=O)N(C)c3ccccc3)ccc2c(-c2ccc(Cl)cc2)c1[C@H](OC(C)(C)C)C(=O)O` [Compound 17, (S)-2-tert-butoxy-2-(5-(4-chlorophenyl)-7-methyl-2-(methyl(phenyl)carbamoyl)quinolin-6-yl)acetic acid] had an EC50 of 359 nM. Turning to `Cc1cc2cccnc2c(-c2ccc(Cl)cc2)c1[C@H](OC(C)(C)C)C(=O)O` [Compound 4J, (S)-2-tert-butoxy-2-(8-(4-chlorophenyl)-6-methylquinolin-7-yl)acetic acid], the EC50 amounted to 543 nM.

In turn, `Cc1cc2nc(C(C)C)ccc2c(-c2ccc(Cl)cc2)c1[C@H](OC(C)(C)C)C(=O)O` [Compound 90, (S)-2-tert-butoxy-2-(5-(4-chlorophenyl)-2-isopropyl-7-methylquinolin-6-yl)acetic acid] showed an EC50 of 67 nM. Against the preceding compound, the EC50 is about 8.1-fold lower.

`Cc1cc2nc(-c3cncnc3)ccc2c(-c2ccc3c4c(ccnc24)CCO3)c1[C@H](OC(C)(C)C)C(=O)O` (atropisomer, axis not shown) [Compound 72, (S)-2-tert-Butoxy-2-((R)-5-(2,3-dihydropyrano[4,3,2-de]quinolin-7-yl)-7-methyl-2-(pyrimidin-5-yl)quinolin-6-yl)acetic acid] returned an EC50 of 194 nM. Regarding `Cc1cc2nc(NCCN3CCOCC3)ccc2c(-c2ccc(Cl)cc2)c1[C@H](OC(C)(C)C)C(=O)O` [Compound 34, (S)-2-tert-Butoxy-2-(5-(4-chlorophenyl)-7-methyl-2-(2-morpholinoethylamino)quinolin-6-yl)acetic acid], the response was half-maximal at 266 nM (EC50). This EC50 and that of the compound before are within 1.5-fold of each other. Same read-out and setting: next, `CC#Cc1ccc2c(-c3ccc4c5c(ccnc35)CCO4)c([C@H](OC(C)(C)C)C(=O)O)c(C)cc2n1` (atropisomer, axis not shown) [Compound 44, (S)-2-tert-Butoxy-2-((R)-5-(2,3-dihydropyrano[4,3,2-de]quinolin-7-yl)-7-methyl-2-(prop-1-ynyl)quinolin-6-yl)acetic acid]: 18 nM; `C#Cc1ccc2c(-c3ccc4c5c(ccnc35)CCO4)c([C@H](OC(C)(C)C)C(=O)O)c(C)cc2n1` (atropisomer, axis not shown) [Compound 45, (S)-2-tert-butoxy-2-((R)-5-(2,3-dihydropyrano[4,3,2-de]quinolin-7-yl)-2-ethynyl-7-methylquinolin-6-yl)acetic acid]: 29200 nM. Regarding `Cc1cc2nc(N3CCCC3)ccc2c(-c2ccc3c4c(ccnc24)CCO3)c1[C@H](OC(C)(C)C)C(=O)O` [Compound 94, (S)-2-tert-butoxy-2-((R)-5-(2,3-dihydropyrano[4,3,2-de]quinolin-7-yl)-7-methyl-2-(pyrrolidin-1-yl)quinolin-6-yl)acetic acid], the EC50 worked out at 149 nM. Against the preceding compound, the EC50 is about 200-fold lower. In turn, `Cc1cc2nc(N3CCOCC3)ccc2c(-c2ccc(Cl)cc2)c1[C@H](OC(C)(C)C)C(=O)O` [Compound 29, (S)-2-tert-Butoxy-2-(5-(4-chlorophenyl)-7-methyl-2-morpholinoquinolin-6-yl)acetic acid] returned an EC50 of 939 nM. For the compound `CC(=O)c1ccc2c(-c3ccc4c5c(ccnc35)CCO4)c([C@H](OC(C)(C)C)C(=O)O)c(C)cc2n1` [Compound 111, (S)-2-((R)-2-Acetyl-5-(2,3-dihydropyrano[4,3,2-de]quinolin-7-yl)-7-methylquinolin-6-yl)-2-tert-butoxyacetic acid], the EC50 came to 352 nM.

The same experiment, now with this note: MT-4 cells infected with HIV-IIIb (0.004 m.o.i.), 5 days of incubation, CellTiter-Glo chemiluminescence readout.
Take `Cc1ccc2c(-c3ccc4c(c3Cl)NCCO4)c([C@H](OC(C)(C)C)C(=O)O)c(C)cc2n1` (atropisomer, axis not shown) [Compound 105]: the EC50 is 105 nM. In other words, the sub-micromolar range.

In the case of `Cc1cc2nc(CN(C)C)ccc2c(-c2ccc3c4c(ccnc24)CCO3)c1[C@H](OC(C)(C)C)C(=O)O` [Compound 20, (S)-2-tert-butoxy-2-((R)-5-(2,3-dihydropyrano[4,3,2-de]quinolin-7-yl)-2-((dimethylamino)methyl)-7-methylquinolin-6-yl)acetic acid], it took 1740 nM to reach a half-maximal effect (EC50). `Cc1ccc2c(-c3ccc4c(c3Cl)NCCO4)c([C@H](OC(C)(C)C)C(=O)O)c(C)cc2n1` [Compound 89, (S)-2-tert-Butoxy-2-((R)-5-(5-chloro-3,4-dihydro-2H-benzo[b][1,4]oxazin-6-yl)-2,7-dimethylquinolin-6-yl)acetic acid] returned an EC50 of 42 nM.

As to `Cc1cc2nc(-c3cccs3)ccc2c(-c2ccc3c4c(ccnc24)CCO3)c1[C@H](OC(C)(C)C)C(=O)O` [Compound 69, (S)-2-tert-butoxy-2-((R)-5-(2,3-dihydropyrano[4,3,2-de]quinolin-7-yl)-7-methyl-2-(thiophen-2-yl)quinolin-6-yl)acetic acid], the EC50 was determined as 82 nM.
